Data: patent publication US20250025440A1, “COMPOSITIONS AND METHODS FOR MANAGEMENT OF HUMAN PAPILLOMA VIRUS-ASSOCIATED CANCERS” (LOMA LINDA UNIVERSITY, priority 2021, published 2025)
Like-named read-outs stand apart in the source and are kept apart here.

Legend:
[1] = system: HPV- (SCC19, SCC29) and HPV+ (SCC47, SCC104, SCC152) HNSCC cell lines; assay: Sensitization of HNSCC cell lines to photon radiation; format: cell-based; conditions: radiation 0-4Gy followed by inhibitor; DER10
Protocol: The dose enhancement ratio for 10% survival (DER10) was calculated as follows: DER10=(Dose correlated with 10% survival fraction in radiation-treated cells)/(Dose correlated with 10% survival fraction in radiation and inhibitor treated cells).
CCDP, Cetuximab, and GA-OH were evaluated for their ability to sensitize HNSCC cell lines to photon radiation.
Colonies were counted after 14-21 days and normalized to vehicle control and survival analysis was performed.
Sensitization of an additional HPV^+ cell line to radiation by CDDP, Cetuximab and GA-OH was evaluated.

[2] = target: T1, full-length HPV E6 binding to human Caspase 8 (Human papillomavirus type 16, UniProt P03126); conditions: for inhibition of E6-caspase 8 binding relative to GA: SAR analogs
T1 construct: made in house; host or cells: E. coli
Protocol: Three structurally diverse libraries (Prestwick library, Microsource Spectrum library and an in-house collection at Kansas University; see Table 1) were screened for the ability of compounds to inhibit the binding of full-length HPV E6 to human Caspase 8 using a previously optimized AlphaScreen™ protocol.
The compounds were diluted to a working concentration in DMSO and screened at a single-point final concentration of 10 μM with no replicates. Briefly, 75 nL of each compound was transferred and added to wells of the destination 384-well plate using the Echo dispenser to 4 μL of blocking solution. 4 μL of 800 nM GST-E6 and 4 μL of His6-Caspase 8 were added and pre-incubated at room temperature for 60 minutes. 8 μL of the donor and acceptor bead mixture (final concentration of 20 μg/ml) was then added. The plates were sealed and incubated for 4 hours at room temperature before the plates were read using the Envision™ Multi-Label plate reader (Perkin Elmer Inc.). […] A 10-point serial dilution of these compounds was done for dose-dependency reconfirmation. Dose response inhibition curves were constructed and IC50 calculated using GraphPad Prism using four parameter non-linear regression analysis.
The first counter-screen assay was based using the GST-His6 fusion peptide as the E6-binding partner instead of GST-E6-His6-Caspase 8. Hit candidate compounds from the primary screen were prepared using a 6-point serial dilution. Using an Echo dispenser, compounds were transferred to plates containing 4 μL of blocking buffer. 8 μL of 5 nM GST-His6 peptide substrate was then added. The mixture was pre-incubated at room temperature for 60 minutes. Glutathione donor and nickel chelate acceptor beads (final concentration 20 μg/mL) were added and incubated for another 60 minutes at room temperature. Dose-dependency of the compounds using GST-E6-His6-Caspase 8 was performed in parallel using the same protocol as in the primary screen. The signals were then read using the Envision™ plate reader.
(§1) Using the SciFinder and Zinc15 databases, several gambogic acid structural analogs were identified and selected. The 8 analogs were obtained as follow: gambogenic amide (Enzo Life Sciences), gambogenic acid (Selleckchem), morellic acid (Aobious), 30-hydroxy gambogic acid (Quality Phytochemicals, LLC), acetyl gambogic acid (Microsource), and gambogin, neogambogic acid and isomorellinol (MolPort Natural Products). Additional gambogic acid was purchased from Tocris. The interactions of the analogues with E6-caspase 8 was tested using AlphaScreen™ technology using the same protocol as with the primary screen, and were compared to the parent compound. The effect on cell viability was also similarly done in HPV^+ and HPV^− cell lines via the MTT assay (see below) and potency was determined using GraphPad IC50 curve fitting.

[3] = system: SCC104 (HPV+ HNSCC cell line); assay: MTT cell viability of gambogic acid analogs; format: cell-based; conditions: for rank among highest IC50s relative to the parent compound: SCC104, MTT
Protocol: Next, the analogs were evaluated for functional activity using the HPV^+ HNSCC cell line, SCC104, in the MTT assay as described previously to determine whether similar findings would be observed as in the in vitro AlphaScreen™ analysis. With one exception, the patterns were similar to the AlphaScreen™ data, but the differences were relatively more pronounced in the cell-based screen (FIG. 6B). […] Based on these findings, 30-hydroxygambogic acid (GA-OH) was selected as a candidate for more extensive functional studies.
as §1
(§2) All working concentrations were diluted in PBS to the desired concentration before use. To test the effect of gambogic acid and/or its derivatives on cell viability, all cell lines were seeded at 2×10^4 per well in 96-well plates and allowed to adhere overnight. Various concentrations of the analogues were added and the cells incubated at 37° C. for 24 hr. Viability was then measured using the MTT assay, performed as described previously. All experiments were repeated at least three times (three biological replicates, carried out on different days). Data presented are from a representative experiment. Cell viability and potency were assessed from % inhibition relative to the vehicle control, and IC50 dose curves were generated using GraphPad Prism.

[4] = toxicities to organs only at high concentrations; cited from earlier work
[5] = system: HPV+ (SCC47, SCC090, SCC104, SCC152) and HPV- (SCC19, SCC29, SCC49, SCC84) HNSCC cell lines; assay: MTT cell viability, HNSCC panel; format: cell-based
Protocol: While SAR studies using the SCC104 cell line provided evidence of the activity of the analogs, further studies were conducted to assess not just the potency, but also the selectivity. As a step towards that goal, the efficacy of GA-OH was evaluated in a panel containing both HPV^+ and HPV^− HNSCC cell lines using MTT cell viability assays. Four HPV^+ cell lines (SCC47, SCC090, SCC104, SCC152) and four HPV^− cell lines (SCC19, SCC29, SCC49, SCC84) were utilized. GA-OH behaved dose dependently in cell lines both with or without HPV. […] FIGS. 7A-7C are graphical representations of the sensitivity of HPV^+ cell lines and HPV^− cell lines to GA-OH-mediated growth inhibition. FIG. 7A is a graphical representation of the cell growth inhibition of HNSCC HPV^+ and HPV^− cell lines by GA-OH (+ and closed shapes represent HPV^+ cell lines and − and open shapes the HPV^− cell lines). […] These cells were good controls, as HPV is an established causative agent in CC carcinogenesis. Two HPV^+ cell lines, SiHa and CaSki were selected as the positive controls and the Saos-2 cell line was used as an HPV-negative control. […] FIG. 7B is a graphical representation of the cell growth inhibition of cervical cancer HPV^+ and HPV^− cell lines by GA-OH. HPV^+ cell lines display higher sensitivity than do HPV^− cell lines as shown by the leftwards shift of the HPV^+ curves (SCC47, 90, 104, 152 in FIG. 7A and SiHa and CaSki in FIG. 7B).
as §2, with “All experiments were repeated at least three times (three biological replicates, carried out on different days). Data presented are from a representative experiment.” left out

[6] = target: T2, E6 binding to E6AP (GST-E6 and His6-E6AP) (Human papillomavirus type 16, UniProt P03126); assay: AlphaScreen E6-E6AP binding (cross-validation); conditions: head to head comparison gambogic acid vs myricetin; read-out: IC50 against E6-E6AP
T2 construct: made in house; host or cells: E. coli (stated for GST-E6 only)
T2 sequence (P03126 whole entry): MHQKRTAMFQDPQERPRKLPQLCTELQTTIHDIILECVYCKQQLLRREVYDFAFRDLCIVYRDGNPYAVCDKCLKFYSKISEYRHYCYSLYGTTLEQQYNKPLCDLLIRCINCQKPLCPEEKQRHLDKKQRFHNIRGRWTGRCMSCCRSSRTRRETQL
Protocol: Its activity was then cross-validated by performing additional AlphaScreening™ tests using GST-E6 and His6-E6AP as substrates. […] The activity of these two inhibitors against E6-Caspase 8 binding were evaluated in parallel for a head to head comparison.
The selected compound(s) were then cross-validated with a related but different primary screen assay. Specifically, the caspase 8 used in the primary screen was replaced with E6AP and the inhibitory activity was evaluated against E6 binding to E6AP (E6-E6AP) using the same steps as in the AlphaScreen™ protocol described above.

T1 sequence (P03126 whole entry): as above

Structure (SMILES): [NH2][Pt]([NH2])([Cl])[Cl] [CDDP, cisplatin, reference compound]
- sensitization to photon radiation [1]: greatest sensitization

Structure (SMILES): CC(C)=CCc1c2c(c(O)c3c1O[C@]14C(=C[C@@H]5C[C@H]1C(C)(C)O[C@@]4(C/C=C(/C)C(=O)O)C5=O)C3=O)C=CC(C)(C)O2 [analog #2, morellic acid]
- inhibition of E6-caspase 8 binding relative to GA [2]: did not significantly affect the activity

Structure (SMILES): CC(C)=CCC/C(C)=C/Cc1c(O)c(CC=C(C)C)c2c(c1O)C(=O)C1=C[C@@H]3C[C@H]4C(C)(C)O[C@@](C/C=C(/C)C(=O)O)(C3=O)[C@@]14O2 [analog #3, gambogenic acid]
- rank among highest IC50s relative to the parent compound [3]: third

Structure (SMILES): CC(C)=CCC[C@]1(C)C=Cc2c(O)c3c(c(CC=C(C)C)c2O1)O[C@]12C(=C[C@@H]4CC1C(C)(C)O[C@@]2(C/C=C(/C)C(N)=O)C4=O)C3=O [analog #4, gambogic amide]
- inhibition of E6-caspase 8 binding relative to GA [2]: did not significantly affect the activity

Structure (SMILES): CC(C)=CCCC1(C)CC(O)c2c(O)c3c(c(CC=C(C)C)c2O1)OC12C(=CC4CC1C(C)(C)OC2(C/C=C(\C)C(=O)O)C4=O)C3=O (stereo not shown) [analog #5, neo-gambogic acid]
- rank among highest IC50s relative to the parent compound [3]: fourth

Structure (SMILES): CC(C)=CCCC1(C)C=Cc2c(O)c3c(c(CC=C(C)C)c2O1)O[C@]12C(=CC4C[C@H]1C(C)(C)OC2(CC=C(C)C)C4=O)C3=O (stereo partly shown) [analog #6, gambogin]
- rank among highest IC50s relative to the parent compound [3]: first

Structure (SMILES): CC(C)=CCc1c2c(c(O)c3c1OC14C(=CC5CC1C(C)(C)OC4(C/C=C(\C)CO)C5=O)C3=O)C=CC(C)(C)O2 (stereo not shown) [analog #7, iso morellinol]
- inhibition of E6-caspase 8 binding relative to GA [2]: did not significantly affect the activity

Structure (SMILES): CC(=O)Oc1c2c(c(CC=C(C)C)c3c1C(=O)C1=C[C@@H]4CC5C(C)(C)OC(C/C=C(\C)C(=O)O)(C4=O)[C@@]15O3)OC(C)(CCC=C(C)C)C=C2 (stereo partly shown) [analog #8, acetyl iso-gambogic acid]
- potency in MTT assay ([3]; SCC104, 24 hr): diminished activity
- inhibition of E6-caspase 8 binding relative to GA [2]: did not significantly affect the activity

Structure (SMILES): CC(C)=CCC[C@]1(C)C=Cc2c(O)c3c(c(CC=C(C)C)c2O1)O[C@]12C(=C[C@@H]4C[C@H]1C(C)(C)O[C@@]2(C/C=C(/C)C(=O)O)C4=O)C3=O [gambogic acid]
- tolerability in animal studies [4]: relatively tolerable
- potency and selectivity for HPV+ versus HPV- cells [5]: significantly more sensitive
- IC50 [6]: 1.7 µM
- IC50 ([2]; 11 compounds that passed counter-screening, read-out: IC50 (μM) against E6-Caspase 8 binding): 2 µM
- IC50 ([2]; head to head comparison gambogic acid vs myricetin, read-out: IC50 against E6-Caspase 8): 1.9 µM

Structure (SMILES): O=c1c(O)c(-c2cc(O)c(O)c(O)c2)oc2cc(O)cc(O)c12 [myricetin, reference compound]
- IC50 [6]: 5.6 µM
- IC50 ([2]; read-out: IC50 against E6-Caspase 8): 4.6 µM
